This test is described as follows: Inhibition of Bacillus anthracis edema factor-induced cytotoxicity in mouse RAW264.7 cells assessed as LDH release after 4 hrs.

Consider `O=C(O)c1cccc(NC(=O)c2cccc3c2C(=O)c2ccccc2-3)c1` [3-[(9-oxo-9Hfluorene-1-carbonyl)-amino]-benzoic acid], for which the IC50 came to 1.7 µM.
As for `COC(=O)c1ccc([C@H]2Nc3ccc(C(=O)O)cc3[C@@H]3C=CC[C@H]23)cc1` [(3aS,4S,9bR)-4-(4-(methoxycarbonyl)phenyl)-3a,4,5,9b-tetrahydro-3H-cyclopenta[c]quinoline-8-carboxylic acid], the figure is 100 µM.

Values taken from BindingDB's records for doi:10.1016/j.bmc.2008.06.036 (University of Texas Medical Branch, 2008).
